{"source": "patent US6583334B1", "about": "“Ovariectomized mouse model for human menopause” (Board of Trustees operating Michigan State University, priority 2000, dated 2003)", "key": {"[1]": {"system": "mammary epithelial and stromal cells", "assay": "DNA histoautoradiography (3H-thymidine labeling index) after E in OVX mice", "type": "in vivo, BALB/c female mice", "conditions": "for maximum proliferative response, 5 wk vs 1 wk post OVX: dose response study", "description": "Ten-week-old or 9-12 month-old BALB/c female mice from our own colony were bilaterally ovariectomized (OVX) under Nembutal anesthesia 1 or 5 weeks prior to E treatment. […] Injection was chosen as the method of systemic administration to optimize precision and reproducibility of hormone dosage.\nAt various times after E injection, animals received a single ip injection of [^3H]thymidine in a dosage of 2 μCi/g BW 1 h before sacrifice. The mammary glands were removed, fixed and processed as wholemounts followed by embedding and sectioning for histoautcradiographic analysis as described previously. Histological sections were examined at 400× magnification to determine the DNA labeling indices (LIs) of epithelial and stromal cells. […] In parallel, stromal cell LIs were determined for areas adjacent to and distal from duct ends. Adjacent areas were defined to be within […] of the duct end (i.e. in the same microscope field at 400× magnification) and the distal areas were defined to be more than 400 μm away from the duct end. A minimum of 10 individual structures were evaluated for each of 5-9 mice per experimental group."}, "[2]": {"system": "MCF-7 human breast carcinoma cell line", "conditions": "cited from earlier work"}, "[3]": {"assay": "Serum levels of E by radioimmunoassay", "type": "in vivo, BALB/c female mice", "conditions": "female, BALB/c, mouse, 24 h after injection of 1 μg E at 5 wks post OVX, n=4, read-out: E serum level", "description": "(§1) Ten-week-old or 9-12 month-old BALB/c female mice from our own colony were bilaterally ovariectomized (OVX) under Nembutal anesthesia 1 or 5 weeks prior to E treatment. […] Injection was chosen as the method of systemic administration to optimize precision and reproducibility of hormone dosage. Serum levels of E were determined after OVX and E injection by radioimmunoassay using a commercial kit (Diagnostic Products Corp., Los Angeles, Calif.) according to the suppliers instructions. […] Therefore, in all experiments except time course studies, mammary glands were analyzed at 72 h after E treatment for DNA histoautoradiogrpahy and at 96 h after E treatment for morphological analysis."}, "mammary gland": {"system": "mammary gland", "assay": "Mammary gland wholemount morphology after E in OVX mice", "type": "in vivo, BALB/c female mice", "description": "as §1"}, "[4]": {"system": "progesterone receptor (PR)", "assay": "Steroid hormone binding assay ([3H]R5020) for PR concentration after E", "type": "in vivo, BALB/c female mice", "description": "To determine PR concentration, cytoplasmic extracts were prepared separately for mammary gland and uteri as described previously (Haslam, S. Z., et al., Endocrinol 108:825-830 (1981)). Mammary gland and uterine cytoplasmic extracts were incubated with a single saturating concentration of 20 nM [^3H]R5020 with 100-fold excess radioinert dexamethasone (for suppression of progestin binding to glucocorticoid receptors) or with 100-fold excess radioinert R5020. Specific binding was determined using a dextran-coated charcoal assay procedure as previously described (Haslam, S. Z., et al., Endocrinol 108:825-830(1981)). Tissue DNA was quantitated as previously described (Ceriotti, G., J Biol Chem 198:297-303 (1952))."}, "PR": {"system": "PR", "assay": "PR immunohistochemistry/immunofluorescence after E", "type": "in vivo, mice", "excerpt": "A dissociation between E stimulation of cell proliferation and PR regulation in mouse mammary gland has previously been reported (Fendrick, J. L., et al., J Mammary Gland Biol Neoplasia 3:7-22 (1998)). Although E appears to mediate proliferation of epithelial cells indirectly via stroma, E acts directly in epithelial cells to increase PR levels (Haslam, S. Z., Endocrinol 122:860-867 (1988)). Thus, our observations of increased responsiveness to the proliferative effect, but decreased responsiveness to the PR regulatory effect of E indicate that mammary epithelial and stromal cells are affected differently by long-term OVX. To confirm this observation, we have also used immunohistochemical analysis to determine the percentage of PR positive cells and PR concentration per cell, using a fluorescein-conjugated secondary antibody detection system, similar to the ER immunofluorescence assay herein. […] Future studies are planned to determine the mechanistic basis of these different responses to OVX. A similar dissociation of estrogenic regulation of proliferation and PR level has recently been reported for normal human breast (Clark, R. B., et al., Cancer Res 57:4987-4991 (1997)). […] In contrast, since ER and PR do co-localize in the same cells, E appears to act directly to regulate PR in breast epithelial cells. […]"}, "[5]": {"system": "progesterone receptor (PR)", "assay": "PR ligand binding assay, time course of E induction of PR", "type": "in vivo, BALB/c virgin mice", "conditions": "for increase in PR levels: single injection of E", "description": "Hormone- or control-treated mammary glands were analyzed for progesterone receptor (PR) levels using a dextran-coated charcoal ligand binding assay (Haslam, S. G., Endocrinology 195:789-795 (1979)). Tissue DNA was quantitated as previously described (Ceriotti, G., J Biol Chem 198:297-303 (1952))."}, "mammary gland duct ends": {"system": "mammary gland duct ends", "assay": "Elvax implants of RU486 or ICI 182,780: duct end enlargement in E+P injected OVX mice", "type": "in vivo, BALB/c virgin mice", "conditions": "for reduction of number of enlarged duct ends induced by E+P: implant vs control implant; for number of enlarged duct ends (mean ± S.E.M.) per implanted mammary gland: 3 days E + P", "description": "Ten-week old BALB/c virgin mice from our own colony were bilaterally ovariectomized 1 or 5 weeks (wks) before hormone treatment. All mice received sc daily injections of 1 μg 17b-estradiol (E)+1 mg progesterone (P) as a suspension in 0.04% gum arabic in 0.85% NaCl; control groups received vehicle only. The E+P dosage was determined from previous studies on mouse mammary gland (Magnusson, C., et al., Int J Cancer 81:339-344 (1999); and Beral V., et al., Lancet 350:1047-1059 (1997)) on the basis that it produced modest sidebranching and alveolar bud development ([…]., Endocrinology 122:464-470 (1998)), and resembled the normal breast tissue of postmenopausal women who had received […]., et al., J Clin Endocrinol Metab 84:4559-4565 (1999)). […] The effects of the implants on the mammary gland were quantified morphometrically by capturing a digitized microscopic image of the mammary gland wholemount at 10× magnification using NIH/Image One software. The numbers and size of duct ends were measured within a 2 cm radius of the implant. Duct ends were considered to be enlarged if they were 1.0 mm or greater in diameter at the 10× magnification."}, "[6]": {"conditions": "24 hr after E injection, 5 wk post OVX"}}, "note": "“And” between values parts separate entries of the source, which are not always exact repeats. Equal entries are not always repeated. “Also recorded” adds a separate entry of the source. Where two headings read alike, the source gives them in different places."}
{"smiles": "C[C@]12CC[C@@H]3c4ccc(O)cc4CC[C@H]3[C@@H]1CC[C@@H]2O", "note": "[E, 17β-estradiol]", "values": [{"measurement": "stimulation of DNA synthesis in stromal cells adjacent to duct ends, 5 wk vs 1 wk post OVX", "setting": "[1]; 1 μg E, 72 h", "result": 4, "unit": "fold"}, {"measurement": "ED 50 of E-induced proliferation", "setting": "[1]; 1 vs 5 wk post OVX", "result": "identical"}, {"measurement": "DNA synthesis in ducts", "setting": "[1]; E-treated, 1 and 5 wk post OVX", "result": "little or no DNA synthesis"}, {"measurement": "maximal epithelial proliferative response, 5 wk vs 1 wk post OVX", "setting": "[1]; after 3 days of daily sc E injection", "result": 2.6, "unit": "fold"}, {"measurement": "increased proliferative response in mammary stromal cells", "setting": "[1]; after long-term OVX (discussion)", "result": 3, "unit": "fold"}, {"measurement": "E-induced stimulation of DNA synthesis in duct ends, 5 wk vs 1 wk post OVX", "setting": "[1]; duct end epithelium, 1 μg E, 72 h", "result": 6.5, "unit": "fold"}, {"measurement": "maximum proliferative response, 5 wk vs 1 wk post OVX", "setting": "[1]; epithelial cells, 72 h", "result": 5.6, "unit": "fold"}, {"measurement": "steady state stromal cell proliferation, 5 wk vs 1 wk post OVX", "setting": "[1]; long-term daily E treatment", "result": 2, "unit": "fold"}, {"measurement": "steady state epithelial proliferation, 5 wk vs 1 wk post OVX", "setting": "[1]; long-term daily E treatment up to 28 days", "result": "2 fold and 2.3 fold"}, {"measurement": "time of maximal DNA synthesis / proliferative response after E injection", "setting": "[1]; mammary epithelial and stromal cells", "result": 72, "unit": "h"}, {"measurement": "maximum proliferative response, 5 wk vs 1 wk post OVX", "setting": "[1]; stromal cells, 72 h", "result": 2.5, "unit": "fold"}, {"measurement": "dose for maximal proliferative response", "setting": "[2]; MCF-7 cells deprived of estrogen for 1-6 months", "result": "10^−14 M"}, {"measurement": "dose for maximal proliferative response", "setting": "[2]; MCF-7 cells, not estrogen-deprived", "result": "10^−10 M"}, {"measurement": "concentration at 24 h", "setting": "[3]", "result": "0.031 ± 0.0078", "unit": "ng/mL"}, {"measurement": "percentage of mammary glands exhibiting stimulation of duct ends", "setting": "mammary gland; 5 wk post OVX, after E treatment (single ip 1 μg, 4 days later)", "result": 100, "unit": "%"}, {"measurement": "extent of stimulatory response to E as a function of time after ovariectomy", "setting": "mammary gland; 9-12 month old mice, OVX 1, 3 or 5 weeks prior to E", "result": "identical to that obtained in 10-week-old mice"}, {"measurement": "effect on mammary gland morphology", "setting": "mammary gland; E treatment at 1 wk post OVX", "result": "no effect on morphology"}, {"measurement": "effect on mammary gland morphology", "setting": "mammary gland; E treatment at 5 wk post OVX (late postmenopausal)", "result": "pronounced enlargement of duct ends; also recorded: produced enlarged duct ends"}, {"measurement": "time of maximal morphological response after E injection", "setting": "mammary gland; mouse, in vivo", "result": 96, "unit": "h"}, {"measurement": "morphological and DNA synthesis results", "setting": "mammary gland; ovariectomized plus adrenalectomized mice", "result": "identical to those obtained with ovariectomy alone"}, {"measurement": "increase in PR in mammary gland", "setting": "[4]; 12, 24 and 36 h after E injection, 5 wk post OVX", "result": "No increase"}, {"measurement": "increase in PR binding in mammary gland", "setting": "[4]; 24 hr after E injection, 1 wk post OVX", "result": 2.5, "unit": "fold"}, {"measurement": "increase in PR binding in mammary gland", "setting": "[4]; [6]", "result": "failed to increase; also recorded: no significant increase"}, {"measurement": "increase in PR in uteri", "setting": "[4]; [6]", "result": 8, "unit": "fold"}, {"measurement": "increase in PR concentration per cell", "setting": "PR; 1 wk post OVX E-treated mammary glands", "result": 2, "unit": "fold"}, {"measurement": "numbers of PR positive cells or amount of PR per cell", "setting": "PR; 5 wk post OVX E-treated glands", "result": "no significant increase"}, {"measurement": "number of daily E injections until PR levels increased above control", "setting": "[5]; 5 wk post OVX", "result": 7, "unit": "daily E injections"}, {"measurement": "increase in PR levels", "setting": "[5]; 1 wk post OVX", "result": "2.5 fold and 2 fold"}, {"measurement": "increase in PR levels", "setting": "[5]; 5 wk post OVX", "result": "failed to increase PR levels"}]}
{"smiles": "C[C@]12CC[C@@H]3c4ccc(O)cc4C[C@@H](CCCCCCCCC[S+]([O-])CCCC(F)(F)C(F)(F)F)[C@H]3[C@@H]1CC[C@@H]2O", "note": "(stereo partly shown) [ICI 182,780]", "values": [{"measurement": "reduction of number of enlarged duct ends induced by E+P", "setting": "mammary gland duct ends; 5 wk post OVX", "result": 8, "unit": "fold"}, {"measurement": "number of enlarged duct ends (mean ± S.E.M.) per implanted mammary gland", "setting": "mammary gland duct ends; late postmenopause (5 wk post OVX), 0.1 μg ICI 182,780 implant, n = 8", "result": "1.0 ± 1.0"}]}
{"smiles": "CC#C[C@]1(O)CC[C@H]2[C@@H]3CCC4=CC(=O)CCC4=C3[C@@H](c3ccc(N(C)C)cc3)C[C@@]21C", "note": "[RU486]", "values": [{"measurement": "reduction of number of enlarged duct ends induced by E+P", "setting": "mammary gland duct ends; 1 wk post OVX", "result": 9, "unit": "fold"}, {"measurement": "number of enlarged duct ends (mean ± S.E.M.) per implanted mammary gland", "setting": "mammary gland duct ends; early postmenopause (1 wk post OVX), 0.1 μg RU486 implant", "result": "0.75 ± 0.25"}, {"measurement": "number of enlarged duct ends (mean ± S.E.M.) per implanted mammary gland", "setting": "mammary gland duct ends; late postmenopause (5 wk post OVX), 0.1 μg RU486 implant", "result": "9.0 ± 1.0"}]}
